Measurements taken from paper PMC12670765, “Employment of chia gum and tannic acid as natural products in immobilization of horseradish peroxidase for the removal of azo dye” (BMC Biotechnology, 2025).

Tested on: T1, Horseradish peroxidase (HRP), soluble HRP
T1 construct: gene PRXC1A; free soluble form
Assay: Lineweaver-Burk; absorbance at […] nm
Type: biochemical, Armoracia rusticana
Settings: soluble enzyme; co-substrate H2O2 (standard assay 8 mM); standard assay 20 mM sodium acetate pH 5.5

Km: 6.9 mM
Structure (SMILES): COc1ccccc1O [guaiacol]
